What was measured:
[1] = molecular target: T1, LAT1 transporter (Homo sapiens, UniProt Q01650); experiment: AV-101 uptake in HEK-293 cells overexpressing LAT1; format: cell-based
T1 construct: expressed in transfected cells; host or cells: HEK-293
Excerpt: The L-Type Amino Acid Transporter 1 (LAT1, SLC7A5) is part of the SLC7 family and forms a heterodimer with CD98 via a disulphide bond (Mastroberardino, L. et al. Amino-acid transport by heterodimers of 4F2hc/CD98 and members of a permease family. Nature 395, 288-291, doi: 10.1038/26246 (1998)). CD98 (4F2hc, SLC3A2) is a type II glycoprotein that functions as a chaperone for LAT1, stabilizing and facilitating its translocation to the plasma membrane. LAT1 is the functional unit of the complex (Napolitano, L. et al. LAT1 is the transport competent unit of the LAT1/CD98 heterodimeric amino acid transporter. The international journal of biochemistry & cell biology, doi: 10.1016/j.biocel.2015.08.004 (2015)) and substrates include a range of large neutral amino acids such as tyrosine, leucine, isoleucine, valine and phenylalanine as well as pharmaceutical drugs including L-DOPA and gabapentin. (Dickens, D. et al. Transport of gabapentin by LAT1 (SLC7A5). Biochem Pharmacol 85, 1672-1683, doi: 10.1016/j.bcp.2013.03.022 (2013); Uchino, H. et al. Transport of amino acid-related compounds mediated by L-type amino acid transporter 1 (LAT1): insights into the mechanisms of substrate recognition. Molecular pharmacology 61, 729-737 (2002)). The SLC7A5 locus with rsid rs28582913 has a single nucleotide polymorphism, wherein the minor allele, T instead of C, at position 87843494 on chromosome 16, is present in approximately 18-56% of the population depending on ethnicity (https://www.ncbi.nlm.nih.gov/snp/rs28582913#frequency_tab), and results in a 1.94 fold increase in the kynurenine metabolite. […] Additionally, physiological amino acids reduce LAT1 mediated transport of AV-101.

[2] = tested on: Human brain endothelial cells; experiment: AV-101 uptake in human brain endothelial cells; format: cell-based
Excerpt: The L-Type Amino Acid Transporter 1 (LAT1, SLC7A5) is part of the SLC7 family and forms a heterodimer with CD98 via a disulphide bond (Mastroberardino, L. et al. Amino-acid transport by heterodimers of 4F2hc/CD98 and members of a permease family. Nature 395, 288-291, doi: 10.1038/26246 (1998)). CD98 (4F2hc, SLC3A2) is a type II glycoprotein that functions as a chaperone for LAT1, stabilizing and facilitating its translocation to the plasma membrane. LAT1 is the functional unit of the complex (Napolitano, L. et al. LAT1 is the transport competent unit of the LAT1/CD98 heterodimeric amino acid transporter. The international journal of biochemistry & cell biology, doi: 10.1016/j.biocel.2015.08.004 (2015)) and substrates include a range of large neutral amino acids such as tyrosine, leucine, isoleucine, valine and phenylalanine as well as pharmaceutical drugs including L-DOPA and gabapentin. (Dickens, D. et al. Transport of gabapentin by LAT1 (SLC7A5). Biochem Pharmacol 85, 1672-1683, doi: 10.1016/j.bcp.2013.03.022 (2013); Uchino, H. et al. Transport of amino acid-related compounds mediated by L-type amino acid transporter 1 (LAT1): insights into the mechanisms of substrate recognition. Molecular pharmacology 61, 729-737 (2002)). […]

[3] = cited from earlier work; for crossing of the blood-brain barrier / access to the CNS: after administration
[4] = tested on: depression, major depressive disorder; experiment: Treatment of depression / MDD in genotyped subjects; format: in vivo, human
Excerpt: In subjects with the BDNF variant, the A allele of the SNP rs6265 a higher dose of the L-4-CI-KYN results in the mood-enhancing or anti-depressive response. Subjects affirmatively report feelings of well-being. This is consistent with reports that the glutamatergic system contributes to the pathophysiology of depression and that stress can induce changes in NMDA receptors. See, for example, Calabrese, et al., PloS one vol. 7,5 (2012): e37916. Twenty-five subjects, both male and female, ages 18 to 65, with a diagnosis of MDD are treated with either L-4-CI-KYN (1,080 or 1,440 mg/day given orally) for 2 weeks, similar in design to similar studies. See e.g., Ibrahim et al. J Clin Psychopharmacol. 2012 August; 32(4): 551-557; Zarate et al. Biol Psychiatry. 2013 Aug. 15; 74(4):257-64; Zarate et al. Arch Gen Psychiatry. 2006 August; 63(8):856-64; Zarate et al. 2005 Biological psychiatry 57 (4), 430-432. The subjects are pre-screened to be positive for at least one of the following variant SNPs, the T allele of SNP rs61825638, the T allele of SNP rs28582913, or the C allele of rs2121337, or positive for the G allele of rs6265. In addition, a control group of twenty-five subjects is pre-screened as lacking any of: the T allele of SNP rs61825638, the T allele of SNP rs28582913, or the C allele of rs2121337, or lacking the G allele of SNP rs6265. […] Montgomery et al. 1979, Brit. J. Psych., 134:382-389. […]

T1 sequence (Q01650 whole entry): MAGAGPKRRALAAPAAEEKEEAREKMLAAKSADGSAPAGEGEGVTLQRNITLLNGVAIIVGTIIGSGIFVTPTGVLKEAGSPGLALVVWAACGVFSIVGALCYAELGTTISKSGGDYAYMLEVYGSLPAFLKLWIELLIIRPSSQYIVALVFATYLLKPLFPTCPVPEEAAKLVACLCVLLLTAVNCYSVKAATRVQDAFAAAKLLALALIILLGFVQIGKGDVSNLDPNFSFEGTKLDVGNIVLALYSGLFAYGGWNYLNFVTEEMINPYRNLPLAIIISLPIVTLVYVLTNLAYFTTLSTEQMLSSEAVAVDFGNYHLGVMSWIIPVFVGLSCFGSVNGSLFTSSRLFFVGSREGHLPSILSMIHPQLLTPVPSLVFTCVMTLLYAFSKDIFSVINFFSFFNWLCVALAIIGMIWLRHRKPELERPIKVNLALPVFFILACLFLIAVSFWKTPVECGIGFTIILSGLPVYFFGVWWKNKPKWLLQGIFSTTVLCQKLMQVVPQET
T1 sequence (P08195 102-630 partner): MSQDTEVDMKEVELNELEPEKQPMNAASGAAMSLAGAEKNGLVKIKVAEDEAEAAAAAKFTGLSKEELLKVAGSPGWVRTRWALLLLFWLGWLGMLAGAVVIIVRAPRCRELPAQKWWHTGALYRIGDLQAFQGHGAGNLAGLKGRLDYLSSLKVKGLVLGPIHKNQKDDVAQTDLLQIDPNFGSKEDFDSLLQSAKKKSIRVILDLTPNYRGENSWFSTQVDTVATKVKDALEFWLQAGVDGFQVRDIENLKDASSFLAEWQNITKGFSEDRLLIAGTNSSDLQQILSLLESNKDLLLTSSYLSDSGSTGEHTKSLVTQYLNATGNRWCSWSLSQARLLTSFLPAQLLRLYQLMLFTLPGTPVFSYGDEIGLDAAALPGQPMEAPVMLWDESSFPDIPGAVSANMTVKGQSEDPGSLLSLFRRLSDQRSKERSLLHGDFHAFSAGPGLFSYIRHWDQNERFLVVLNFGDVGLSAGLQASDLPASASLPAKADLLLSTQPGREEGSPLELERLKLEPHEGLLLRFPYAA

Row | Structure (SMILES) | effect on AV-101 uptake ([1]; LAT1 inhibitor added, HEK-293 cells overexpressing LAT1) | effect on AV-101 uptake ([2]; in the presence of JPH203) | substrate status for the LAT1 transporter [1] | AV-101 uptake ([1]; HEK-293 cells overexpressing LAT1) | AV-101 uptake [2] | crossing of the blood-brain barrier / access to the CNS [3] | conversion to 7-chlorokynurenic acid ([3]; within activated astrocytes) | HDRS and/or MADRS total scores ([4]; MDD subjects, 1,080 or 1,440 mg/day orally for 2 weeks) | mood enhancing or anti-depressive activity ([4]; subjects with KMO rs61825638 T, SLC7A5 rs28582913 T or ACMSD rs2121337 C variant)
1 | Nc1cc(COc2c(Cl)cc(C[C@H](N)C(=O)O)cc2Cl)c2oc(-c3ccccc3)nc2c1 [JPH203, reference compound] | substantially reduced | significantly diminished | – | – | – | – | – | – | –
2 | Nc1cc(Cl)ccc1C(=O)CC(N)C(=O)O [L-4-CI-KYN, L-4-chlorokynurenine] | – | – | substrate for the LAT1 transporter | substantial increase | significant uptake | readily gains access to the central nervous system | efficiently converted | significant decrease | observed for a higher number of subjects, or for the same number of patients but at a lower dose
3 | O=C(O)c1cc(O)c2ccc(Cl)cc2n1 [7-chlorokynurenic acid, reference compound] | – | – | – | – | – | does not cross the blood-brain barrier | – | – | –

Reference: US20220202756A1, “GENETIC VARIANTS ASSOCIATED WITH RESPONSE TO TREATMENT OF NEUROLOGICAL DISORDERS” (VISTAGEN THERAPEUTICS, INC., priority 2019, published 2022)
